{"source": "paper PMC10095932", "about": "(Molecules, 2023)", "biological_target": "T1, rat NPR-A (Rattus norvegicus, UniProt P18910)", "T1 construct": "endogenous in cells; host or cells: rat PC12 cells", "T1 sequence (P18910 29-1057)": "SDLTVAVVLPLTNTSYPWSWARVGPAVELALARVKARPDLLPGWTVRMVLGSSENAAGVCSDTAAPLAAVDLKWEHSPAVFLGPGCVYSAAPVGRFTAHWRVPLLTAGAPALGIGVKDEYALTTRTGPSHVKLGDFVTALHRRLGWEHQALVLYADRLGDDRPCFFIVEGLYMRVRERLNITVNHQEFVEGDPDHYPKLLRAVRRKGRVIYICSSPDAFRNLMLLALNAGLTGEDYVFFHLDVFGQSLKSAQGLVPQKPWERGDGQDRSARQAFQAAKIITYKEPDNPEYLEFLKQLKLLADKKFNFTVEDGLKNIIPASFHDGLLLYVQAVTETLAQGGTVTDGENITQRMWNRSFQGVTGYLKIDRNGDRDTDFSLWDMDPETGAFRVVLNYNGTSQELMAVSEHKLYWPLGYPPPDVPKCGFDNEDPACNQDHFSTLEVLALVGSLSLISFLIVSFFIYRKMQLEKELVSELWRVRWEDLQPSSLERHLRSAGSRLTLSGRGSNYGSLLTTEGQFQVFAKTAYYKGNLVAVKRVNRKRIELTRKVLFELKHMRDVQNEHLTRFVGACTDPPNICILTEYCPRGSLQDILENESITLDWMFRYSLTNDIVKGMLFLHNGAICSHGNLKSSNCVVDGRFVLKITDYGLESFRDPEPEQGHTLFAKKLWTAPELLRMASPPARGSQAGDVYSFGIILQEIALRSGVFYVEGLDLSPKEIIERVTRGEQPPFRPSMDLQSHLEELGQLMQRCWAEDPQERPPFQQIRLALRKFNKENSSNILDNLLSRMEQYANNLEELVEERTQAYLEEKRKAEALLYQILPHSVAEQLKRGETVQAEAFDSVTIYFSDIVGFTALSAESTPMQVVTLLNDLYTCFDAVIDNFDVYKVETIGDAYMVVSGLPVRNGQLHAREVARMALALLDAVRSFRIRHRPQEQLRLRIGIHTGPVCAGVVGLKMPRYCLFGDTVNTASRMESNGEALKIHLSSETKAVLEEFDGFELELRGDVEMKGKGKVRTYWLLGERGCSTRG", "assay": "cGMP ALPHAscreen, cGMP production in PC12 cells", "type": "cell-based", "experimental": "NP activity can be determined by the effectiveness of the peptide to elicit cGMP production through NPR-A. The cGMP ALPHAscreen evaluates the ability of peptides to stimulate cGMP production in cells through a non-radioactive, homogenous, proximity assay which encompasses […]. […] In order to evaluate the potency of TNPa-e at rNPR-A, TNPa-e were evaluated using the cGMP ALPHAscreen in rat PC12 cells.\nCells were cultured at 5% CO2 and 37 °C. HEK 293 cells were cultured in high glucose DMEM (Gibco, Carlsbad, CA, USA) supplemented with 10% FBS, and 1% penicillin/streptomycin. HEK 293 cells were seeded in media lacking penicillin/streptomycin 24 to 48 h pre-transfection. PC12 cells were cultured in high glucose DMEM (Gibco) supplemented with 10% FBS and 1% penicillin/streptomycin.\nThe cGMP ALPHAscreen was performed using the ALPHAscreen Protein A detection kit and the biotinylated cGMP supplement (Perkin Elmer, Waltham, MA, USA) with rabbit anti-cGMP polyclonal antibody (Biovision, Mountain View, CA, USA). Cells were detached from the flask and the resulting pellet was resuspended in stimulation buffer (HBSS supplemented with 0.1% w/v BSA and 1 mM IBMX at 37 °C). Cells were added to a white 384-well Optiplate (Perkin Elmer, Waltham, USA) to 30,000 cells per well for HEK 293 cells and 10,000 cells per well for PC12 cells. Cells were incubated with different concentrations of test peptides (concentration range of 1 × 10^−5 to 1 × 10^−11 M in stimulation buffer) at 37 °C for 30 min. Cells were lysed with lysis buffer (1 M HEPES, 0.3% Tween-20, 1% BSA in H2O, pH 7.4). Then 5 μL acceptor-bead mix was added to each well under subdued lighting conditions, followed by 5 μL of donor-bead mix. Plates were incubated for ~12 h, slowly shaking at room temperature. After incubation, the ALPHAscreen signal was measured using an EnVision plate reader (Perkin Elmer). The standard curve consisted of cGMP in a concentration range of 1 × 10^−6 to 1 × 10^−12 M. All data points were acquired in triplicate and were analyzed using GraphPad Prism 5.0 software (GraphPad Software, Inc., San Diego, CA, USA).", "note": "Where a SMILES comes first, the peptide text is derived from it. Bridges are numbered along the chain shown (N, C = ends).", "data": [{"molecule": "CC[C@H](C)[C@H](NC(=O)[C@H](CCCCN)NC(=O)[C@H](CO)NC(=O)[C@H](CC(=O)O)NC(=O)[C@@H](N)CO)C(=O)NCC(=O)N[C@@H](CC(N)=O)C(=O)NCC(=O)N[C@H]1CSSC[C@@H](C(=O)N[C@@H](CC(N)=O)C(=O)N[C@@H](CCCNC(=N)N)C(=O)N[C@H](C(=O)N[C@@H](CCSC)C(=O)N[C@@H](CCC(N)=O)C(=O)N[C@@H](CC(N)=O)C(=O)N2CCC[C@H]2C(=O)N2CCC[C@H]2C(=O)N[C@@H](CCCCN)C(=O)N[C@@H](CCCCN)C(=O)N[C@@H](Cc2ccccc2)C(=O)N[C@@H](CO)C(=O)NCC(=O)N[C@@H](CCC(=O)O)C(=O)O)[C@@H](C)CC)NC(=O)CNC(=O)[C@H](CC(C)C)NC(=O)CNC(=O)[C@H](CO)NC(=O)[C@H](C(C)C)NC(=O)[C@H](CO)NC(=O)CNC(=O)[C@H]([C@@H](C)CC)NC(=O)[C@H](CCCNC(=N)N)NC(=O)[C@H](CC(=O)O)NC(=O)[C@H](CC(C)C)NC(=O)[C@@H]2CCCN2C(=O)[C@H](Cc2ccccc2)NC(=O)CNC(=O)[C@H](Cc2ccccc2)NC1=O", "note": "[TNPc] (H-SDSKIGNGCFGFPLDRIGSVSGLGCNRIMQNPPKKFSGE-OH; disulfide 9-25)", "values": [{"measurement": "EC50", "setting": "PC12 cells, 30 min at 37 °C, cGMP ALPHAscreen, three to five separate experiments in triplicate, read-out: rNPR-A EC50 (95% CI), potency to stimulate cGMP production", "value": 0.1, "unit": "µM"}, {"measurement": "selectivity / difference in potency for rNPR-A over hNPR-A", "setting": "rNPR-A (PC12) versus hNPR-A (HEK 293) cGMP potency", "value": 100, "unit": "fold"}]}]}
